Data set [1] in a line: in vitro. The conditions noted are these: human.
The test system of data set [2] is Nipah virus. The experiment in a line: microbe, parasite or virus in culture. The format is cell-based. The conditions noted are these: Henipavirus nipahense.
The subject of the next data set is VSV (pVSV). Put plainly: microbe, parasite or virus in culture. It counts as cell-based, vesicular stomatitis virus. To be noted: read-out: pVSV IC50.
For data set [3], the system named is pseudotyped Hendra (pHeV). Put plainly: microbe, parasite or virus in culture. It counts as cell-based, Hendra virus. To be noted: read-out: pHeV IC50.
The next data set concerns Hendra virus. Put plainly: microbe, parasite or virus in culture. The format is cell-based. To be noted: read-out: HeV IC50.
For another data set, the system named is IL-8. The format is cell-based, African Green Monkey.
The test system of data set [4] is Influenza A/swine/Rachaburi/2000 (H1N1). Put plainly: microbe, parasite or virus in culture. The format is cell-based, Influenza A virus.
Data set [5] in a line: in vitro. The conditions noted are these: African green monkey.
The test system of a further data set is TNF-α. It counts as cell-based, African Green Monkey.
Data set [6] has as its system Nipah virus. Put plainly: microbe, parasite or virus in culture. To be noted: read-out: NiV IC50. It counts as cell-based.
For a further data set, the system named is pseudotyped Nipah (pNiV). Put plainly: microbe, parasite or virus in culture. It counts as cell-based, Nipah virus. To be noted: read-out: pNiV IC50.
The subject of data set [7] is human parainfluenza virus type 3 (HPIV3). Put plainly: microbe, parasite or virus in culture. The format is cell-based. To be noted: read-out: HPIV3 IC50.
Data set [8] relates to Nipah virus. The conditions noted are these: hamster, in vivo; cited from earlier work.
Another data set concerns Henipavirus. The conditions noted are these: cited from earlier work.
A further data set relates to influenza A (H1N1) virus. To be noted: cited from earlier work.
Setting [9] is: 1 h, read-out: NiV IC50, co-infection (Co).
The mark [10] stands for this setting: 1 h, read-out: NiV IC50, post-infection (Post).
Where [11] appears, read: 1 h, read-out: NiV IC50, pre-infection (Pre).
[12] abbreviates: read-out: NiV IC50, cell pre-incubation (Cells).
The mark [13] stands for this setting: Vesicular stomatitis virus, HEK-293T, 48 h.
[14] abbreviates: Henipavirus nipahense, HEK-293T, 48 h.
Where [15] appears, read: Human respirovirus 3, HEK-293T, 24 h.

Like-named read-outs stand apart in the source and are kept apart here.

With `CN1C(=O)[C@]23CC4=CC=C[C@H](O)[C@H]4N2C(=O)[C@@]1(CO)SS3` [Gliotoxin, gliotoxin], the results for the CC50 in the data set “in vitro [1]” and in “in vitro [5]” were 1610 nM and 4900 nM, respectively. Besides, the IC50 in the data set on Nipah virus [2] (setting [9]) stood at 468 nM; in the data set with Nipah virus [2] (setting [10]), 610 nM; in the data set with Nipah virus [2] (setting [11]) it was 1170 nM; in the data set on Nipah virus [2] (setting [12]) it was 487 nM; with VSV (pVSV) (setting [13]) it was 232 nM; in [3] (Hendra virus, HEK-293T, 48 h), 366 nM. The IC50 in the data set with Hendra virus (Henipavirus hendraense, Vero) stood at 579 nM; in data set [4] (Influenza A virus, H1N1, Vero, in Sus scrofa, 24 h, read-out: Influenza IC50) it was 13800 nM; in the data set with Nipah virus [6] (Henipavirus nipahense, Vero), 149 nM; in the data set with pseudotyped Nipah (pNiV) (setting [14]) it was 100 nM; in data set [7] (setting [15]) it was 527 nM. Further, in the data set on IL-8, the “IL-8 expression, fold change” value is on record as “two fold”. Further, in [4], the “inhibition of influenza (H1N1) virus, in words” value (shortened to “inhibition of influenza”) is “dose-dependant inhibition”. In addition, the “TNF-α expression, fold change” value with TNF-α is “suppressed”.
For poly(I)-poly(C12U), the prevention of mortality result in the data set on Nipah virus [8] is on record as “five of six animals”.
Consider brilliant green, for which the CC50 stood at 4670 nM in the data set with Vero cells and 861 nM in the data set on 293T cells. Moreover, the IC50 with VSV (pVSV) was determined as 15 nM; in data set [3], 34 nM; with Hendra virus it was 778 nM; in the data set with Nipah virus [6] it was 218 nM; in the data set on pseudotyped Nipah (pNiV), 42 nM; in [7] it was 248 nM. For the same molecule, in the data set on IL-8, the “IL-8 expression, fold change” value is on record as 20 fold. For the same molecule, the “Influenza IC50” value in data set [4] is recorded as “DNC^a”. For the same molecule, the “inhibition of influenza” value in [4] is recorded as “did not observe antiviral efficacy”. In the data set with TNF-α, the “TNF-α expression, fold change” value amounted to 15 fold.
For `CCN(CC)CCCC(C)Nc1ccnc2cc(Cl)ccc12` (centres unmarked) [chloroquine], in the data set with Henipavirus, the “anti Henipavirus effects in vivo” value is on record as “no anti Henipavirus effects”.
Consider `NC(=O)c1ncn([C@@H]2O[C@H](CO)[C@@H](O)[C@H]2O)n1` [Ribavirin, ribavirin], for which the IC50 is 2240 nM in the data set with Hendra virus (Henipavirus hendraense, Vero) and 3900 nM with Nipah virus [6] (Henipavirus nipahense, Vero). Further, in “in vitro [5]”, the CC50 amounted to 150000 nM.
As to `CN(C)c1ccc(C(=C2C=CC(=[N+](C)C)C=C2)c2ccc(N(C)C)cc2)cc1` [Gentian Violet, gentian violet], the CC50 in “in vitro [1]” is 2830 nM; in the data set “in vitro [5]”, 5860 nM. The IC50 in the data set on Nipah virus [2] (setting [9]) turned out to be 4980 nM; in the data set on Nipah virus [2] (setting [10]), 3950 nM; in the data set on Nipah virus [2] (setting [11]), 7380 nM; with Nipah virus [2] (setting [12]), 587 nM; in the data set on VSV (pVSV) (setting [13]) it was 268 nM; in [3] (Hendra virus, HEK-293T, 48 h), 0.3 nM. The IC50 in the data set with Hendra virus (Henipavirus hendraense, Vero) was determined as 2680 nM; with Nipah virus [6] (Henipavirus nipahense, Vero) it was 525 nM; with pseudotyped Nipah (pNiV) (setting [14]) it was 61 nM; in [7] (setting [15]) it was 860 nM. The “residual viable count of influenza virus, 30 min” value in the data set on influenza A (H1N1) virus was “below three logs”. In addition, in the data set with influenza A (H1N1) virus, the “residual viable count of influenza virus, 60 min” value is reported as “below five logs”. The “IL-8 expression, fold change” value in the data set with IL-8 was “two fold”. Moreover, the “Influenza IC50” value in data set [4] is given as “DNC^a”. Besides, the “inhibition of influenza” value in data set [4] was “did not observe clear inhibition”.

By IC50 is commonly meant the concentration that gives 50% inhibition.

The values are drawn from PMC2781006 (Virology Journal, 2009).
